Source: PubChem BioAssay AID1918931 (Molecular Pharmacology Branch, DTP, NCI, 2023)

Test system: 138582-337-R-J1-PDC complex spheroid viability
Assay: Anticancer human tumor 138582-337-R-J1-PDC patient-derived Merkel cell tumor cell line growth inhibition
Details: for IC50: curve of first compound; for viability, T/C: stronger effect = lower value
Outline: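 Multicellular complex spheroids of tumor cells with human endothelial cells (HUVEC) and mesenchymal stem cells; the LSD1 inhibitor iadademstat was combined with standard-of-care or investigational agents. Top concentration at or near clinical Cmax, half-log dilutions; final DMSO ≤0.25%.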

[1] = second compound 0.1 µM, first compound 0.00316 µM
[2] = second compound 0.1 µM, first compound 0.01 µM
[3] = second compound 0.1 µM, first compound 0.0316 µM
[4] = second compound 0.1 µM, first compound 0.1 µM
[5] = second compound 0.316 µM, first compound 0.00316 µM
[6] = second compound 0.316 µM, first compound 0.01 µM
[7] = second compound 0.316 µM, first compound 0.0316 µM
[8] = second compound 0.316 µM, first compound 0.1 µM
[9] = second compound 1 µM, first compound 0.00316 µM
[10] = second compound 1 µM, first compound 0.01 µM
[11] = second compound 1 µM, first compound 0.0316 µM
[12] = second compound 1 µM, first compound 0.1 µM
[13] = second compound 3.16 µM, first compound 0.00316 µM
[14] = second compound 3.16 µM, first compound 0.01 µM
[15] = second compound 3.16 µM, first compound 0.0316 µM
[16] = second compound 3.16 µM, first compound 0.1 µM
[17] = second compound 10 µM, first compound 0.00316 µM
[18] = second compound 10 µM, first compound 0.01 µM
[19] = second compound 10 µM, first compound 0.0316 µM
[20] = second compound 10 µM, first compound 0.1 µM
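Also: spheroids exposed to agents for 7 days.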
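For viability, T/C in this document: 100% = DMSO vehicle control viability.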

COc1cc(Nc2ncc3c(n2)-c2ccc(Cl)cc2C(c2c(F)cccc2OC)=NC3)ccc1C(=O)O + NC1CC1c1ccc(-c2cccc(O)c2)cc1
IC50 (second compound 0.1 µM): 355 nM
IC50 (second compound 0.316 µM): 210 nM
IC50 (second compound 1 µM): 222 nM
IC50 (second compound 3.16 µM): 183 nM
IC50 (second compound 10 µM): 463 nM
viability, T/C [1]: 66.5%
viability, T/C [2]: 76.5%
viability, T/C [3]: 61.4%
viability, T/C [4]: 66.4%
viability, T/C (second compound 0.1 µM, first compound 0.316 µM): 51.9%
viability, T/C (second compound 0.1 µM, first compound 1 µM): 28.4%
viability, T/C [5]: 64.7%
viability, T/C [6]: 69.4%
viability, T/C [7]: 60.1%
viability, T/C [8]: 64.3%
viability, T/C (second compound 0.316 µM, first compound 0.316 µM): 42.1%
viability, T/C (second compound 0.316 µM, first compound 1 µM): 30.6%
viability, T/C [9]: 70.8%
viability, T/C [10]: 79.4%
viability, T/C [11]: 64.9%
viability, T/C [12]: 59%
viability, T/C (second compound 1 µM, first compound 0.316 µM): 46.7%
viability, T/C (second compound 1 µM, first compound 1 µM): 33.2%
viability, T/C [13]: 70.4%
viability, T/C [14]: 89.8%
viability, T/C [15]: 82.5%
viability, T/C [16]: 60.7%
viability, T/C (second compound 3.16 µM, first compound 0.316 µM): 41.9%
viability, T/C (second compound 3.16 µM, first compound 1 µM): 38.8%
viability, T/C [17]: 82.6%
viability, T/C [18]: 97%
viability, T/C [19]: 80.2%
viability, T/C [20]: 80.9%
viability, T/C (second compound 10 µM, first compound 0.316 µM): 57.2%
viability, T/C (second compound 10 µM, first compound 1 µM): 34.8%

Cn1ncnc1C1c2n[nH]c(=O)c3cc(F)cc(c23)NC1c1ccc(F)cc1 (stereo not given) + NC1CC1c1ccc(-c2cccc(O)c2)cc1
IC50 (second compound 0.1 µM): > 100 nM
IC50 (second compound 0.316 µM): > 100 nM
IC50 (second compound 1 µM): > 100 nM
IC50 (second compound 3.16 µM): > 100 nM
IC50 (second compound 10 µM): > 100 nM
viability, T/C (second compound 0.1 µM, first compound 0.000316 µM): 88.1%
viability, T/C (second compound 0.1 µM, first compound 0.001 µM): 80.2%
viability, T/C [1]: 83.3%
viability, T/C [2]: 69.9%
viability, T/C [3]: 62.3%
viability, T/C [4]: 67.3%
viability, T/C (second compound 0.316 µM, first compound 0.000316 µM): 72.5%
viability, T/C (second compound 0.316 µM, first compound 0.001 µM): 88.3%
viability, T/C [5]: 74.2%
viability, T/C [6]: 71%
viability, T/C [7]: 66%
viability, T/C [8]: 70.7%
viability, T/C (second compound 1 µM, first compound 0.000316 µM): 79.8%
viability, T/C (second compound 1 µM, first compound 0.001 µM): 83.7%
viability, T/C [9]: 73%
viability, T/C [10]: 86.2%
viability, T/C [11]: 82.2%
viability, T/C [12]: 77%
viability, T/C (second compound 3.16 µM, first compound 0.000316 µM): 80.4%
viability, T/C (second compound 3.16 µM, first compound 0.001 µM): 91.3%
viability, T/C [13]: 82.5%
viability, T/C [14]: 81.1%
viability, T/C [15]: 72.1%
viability, T/C [16]: 77.5%
viability, T/C (second compound 10 µM, first compound 0.000316 µM): 99%
viability, T/C (second compound 10 µM, first compound 0.001 µM): 96.1%
viability, T/C [17]: 100%
viability, T/C [18]: 84.3%
viability, T/C [19]: 82.7%
viability, T/C [20]: 81.2%

NS(=O)(=O)OCC1CC(n2ccc3c(NC4CCc5ccccc54)ncnc32)CC1O (stereo not given) + NC1CC1c1ccc(-c2cccc(O)c2)cc1
IC50 (second compound 0.1 µM): 78.9 nM
IC50 (second compound 0.316 µM): 73.7 nM
IC50 (second compound 1 µM): 72.6 nM
IC50 (second compound 3.16 µM): 100 nM
IC50 (second compound 10 µM): 141 nM
viability, T/C (second compound 0.1 µM, first compound 0.00949 µM): 83.6%
viability, T/C (second compound 0.1 µM, first compound 0.03 µM): 63.1%
viability, T/C (second compound 0.1 µM, first compound 0.0949 µM): 48.4%
viability, T/C (second compound 0.1 µM, first compound 0.3 µM): 34.3%
viability, T/C (second compound 0.1 µM, first compound 0.949 µM): 15.5%
viability, T/C (second compound 0.1 µM, first compound 3 µM): 15%
viability, T/C (second compound 0.316 µM, first compound 0.00949 µM): 72.6%
viability, T/C (second compound 0.316 µM, first compound 0.03 µM): 59%
viability, T/C (second compound 0.316 µM, first compound 0.0949 µM): 48.4%
viability, T/C (second compound 0.316 µM, first compound 0.3 µM): 34.3%
viability, T/C (second compound 0.316 µM, first compound 0.949 µM): 24.2%
viability, T/C (second compound 0.316 µM, first compound 3 µM): 15.6%
viability, T/C (second compound 1 µM, first compound 0.00949 µM): 82.2%
viability, T/C (second compound 1 µM, first compound 0.03 µM): 56.3%
viability, T/C (second compound 1 µM, first compound 0.0949 µM): 50.3%
viability, T/C (second compound 1 µM, first compound 0.3 µM): 35.8%
viability, T/C (second compound 1 µM, first compound 0.949 µM): 15.6%
viability, T/C (second compound 1 µM, first compound 3 µM): 14.6%
viability, T/C (second compound 3.16 µM, first compound 0.00949 µM): 86.2%
viability, T/C (second compound 3.16 µM, first compound 0.03 µM): 63.7%
viability, T/C (second compound 3.16 µM, first compound 0.0949 µM): 51.7%
viability, T/C (second compound 3.16 µM, first compound 0.3 µM): 40.7%
viability, T/C (second compound 3.16 µM, first compound 0.949 µM): 17.4%
viability, T/C (second compound 3.16 µM, first compound 3 µM): 14%
viability, T/C (second compound 10 µM, first compound 0.00949 µM): 103%
viability, T/C (second compound 10 µM, first compound 0.03 µM): 68.1%
viability, T/C (second compound 10 µM, first compound 0.0949 µM): 65.6%
viability, T/C (second compound 10 µM, first compound 0.3 µM): 37.1%
viability, T/C (second compound 10 µM, first compound 0.949 µM): 20.4%
viability, T/C (second compound 10 µM, first compound 3 µM): 16.1%
